Measured values from ChEMBL document CHEMBL5113483, “Design and synthesis of NAD(P)H: Quinone oxidoreductase (NQO1)-activated prodrugs of 23-hydroxybetulinic acid with enhanced antitumor properties” (Eur J Med Chem, 2022).

Key:
HT-29 [1] = test: Induction of cell cycle arrest in human HT-29 cells assessed as accumulation of cells at G1 phase at 1 uM incubated for 48 hrs by RNaeA/propidium iodide based flow cytometry analysis (reference value: 62.98 %); assay type: functional
[2] = Selectivity index, ratio of IC50 for cytotoxicity against human HFL1 cells to IC50 for antiproliferative activity against human HT-29 cells overexpressing NQO1; assay type: toxicity, cell-based; conditions: HFL1 cells versus HT-29 cells overexpressing NQO1, read-out: Ratio IC50
HT-29 [3] = test: Induction of apoptosis in human HT-29 cells assessed as upregulation of Bax protein expression incubated for 48 hrs by Western blot analysis; assay type: functional, cell-based; conditions: dose 1-4 µM, DDE = dose-dependent effect
HT-29 [4] = test: Induction of mitochondrial membrane potential loss in human HT-29 cells assessed as JC-1 monomer formation by measuring increase in green intensity at 4 uM incubated for 48 hrs by JC-1 staining based flow cytometry analysis (reference value: 6.54 %); assay type: functional
HT-29 [5] = test: Induction of apoptosis in human HT-29 cells assessed as dead cells at 4 uM incubated for 48 hrs by Annexin V-FITC/PI staining based flow cytometry analysis (Rvb= 0.01%); assay type: functional
HT-29 [6] = test: Induction of apoptosis in human HT-29 cells assessed as downregulation of Bcl-xl protein expression incubated for 48 hrs by Western blot analysis; assay type: functional, cell-based; conditions: dose 1-4 µM, DDE = dose-dependent effect
HT-29 [7] = test: Induction of apoptosis in human HT-29 cells assessed as late apoptotic cells at 2 uM incubated for 48 hrs by Annexin V-FITC/PI staining based flow cytometry analysis (Rvb= 1.04%); assay type: functional
HT-29 [8] = test: Induction of apoptosis in human HT-29 cells assessed as viable cells at 2 uM incubated for 48 hrs by Annexin V-FITC/PI staining based flow cytometry analysis (Rvb= 96.54%); assay type: functional; conditions: read-out: Activity
HT-29 [9] = test: Induction of apoptosis in human HT-29 cells assessed as viable cells at 1 uM incubated for 48 hrs by Annexin V-FITC/PI staining based flow cytometry analysis (Rvb= 96.54%); assay type: functional; conditions: read-out: Activity
HT-29 [10] = test: Induction of mitochondrial membrane potential loss in human HT-29 cells assessed as JC-1 monomer formation by measuring increase in green intensity at 2 uM incubated for 48 hrs by JC-1 staining based flow cytometry analysis (reference value: 6.54 %); assay type: functional
HT-29 [11] = test: Induction of cell cycle arrest in human HT-29 cells assessed as accumulation of cells at G2 phase at 2 uM incubated for 48 hrs by RNaeA/propidium iodide based flow cytometry analysis (reference value: 13.96 %); assay type: functional
HT-29 [12] = test: Induction of apoptosis in human HT-29 cells assessed as upregulation of caspase-3 protein expression incubated for 48 hrs by Western blot analysis; assay type: functional, cell-based; conditions: dose 1-4 µM, DDE = dose-dependent effect
A549 = test: Antiproliferative activity against human A549 cells overexpressing NQO1 assessed as inhibition of cell growth incubated for 72 hrs by MTT assay; assay type: functional, cell-based; conditions: A549, 72 h
[13] = target: NAD(P)H dehydrogenase [quinone] 1 (Homo sapiens) (UniProt P15559); test: Substrate activity at lyophilized human NQO1 assessed as compound decomposition measured after 60 hrs by HPLC analysis
HT-29 [14] = test: Induction of mitochondrial membrane potential loss in human HT-29 cells assessed as healthy cells at 2 uM incubated for 48 hrs by JC-1 staining based flow cytometry analysis (reference value: 93.4 %); assay type: functional
HT-29 [15] = test: Induction of cell cycle arrest in human HT-29 cells assessed as accumulation of cells at S phase at 2 uM incubated for 48 hrs by RNaeA/propidium iodide based flow cytometry analysis (reference value: 23.06 %); assay type: functional
[16] = Selectivity index, ratio of IC50 for antiproliferative activity against human HT-29 cells overexpressing NQO1 in presence of dicoumarol to antiproliferative activity against human HT-29 cells overexpressing NQO1; assay type: functional
HT-29 [17] = test: Induction of apoptosis in human HT-29 cells assessed as late apoptotic cells at 1 uM incubated for 48 hrs by Annexin V-FITC/PI staining based flow cytometry analysis (Rvb= 1.04%); assay type: functional
NCI-H596 = test: Antiproliferative activity against NQO1-deficient human NCI-H596 cells assessed as inhibition of cell growth incubated for 72 hrs by MTT assay; assay type: functional, cell-based; conditions: NCI-H596, 72 h
HT-29 [18] = test: Induction of apoptosis in human HT-29 cells assessed as upregulation of cytochrome C protein expression incubated for 48 hrs by Western blot analysis; assay type: functional, cell-based; conditions: dose 1-4 µM, DDE = dose-dependent effect
HT-29 [19] = test: Induction of apoptosis in human HT-29 cells assessed as viable cells at 4 uM incubated for 48 hrs by Annexin V-FITC/PI staining based flow cytometry analysis (Rvb= 96.54%); assay type: functional; conditions: read-out: Activity
[20] = Cytotoxicity against human HFL1 cells assessed as inhibition of cell growth incubated for 72 hrs by MTT assay; assay type: toxicity, cell-based
HT-29 [21] = test: Induction of cell cycle arrest in human HT-29 cells assessed as accumulation of cells at S phase at 4 uM incubated for 48 hrs by RNaeA/propidium iodide based flow cytometry analysis (reference value: 23.06 %); assay type: functional
HT-29 [22] = test: Induction of mitochondrial membrane potential loss in human HT-29 cells assessed as JC-1 monomer formation by measuring increase in green intensity at 1 uM incubated for 48 hrs by JC-1 staining based flow cytometry analysis (reference value: 6.54 %); assay type: functional
[23] = target: NAD(P)H dehydrogenase [quinone] 1 (Homo sapiens) (UniProt P15559); test: Substrate activity at lyophilized human NQO1 assessed as compound decomposition measured after 6 hrs by HPLC analysis
[24] = Selectivity index, ratio of IC50 for antiproliferative activity against NQO1-deficient human NCI-H596 cells to IC50 for antiproliferative activity against human HT-29 cells overexpressing NQO1; assay type: functional
HT-29 [25] = test: Induction of mitochondrial membrane potential loss in human HT-29 cells assessed as healthy cells at 4 uM incubated for 48 hrs by JC-1 staining based flow cytometry analysis (reference value: 93.4 %); assay type: functional
HT-29 [26] = test: Antiproliferative activity against human HT-29 cells overexpressing NQO1 assessed as inhibition of cell growth incubated for 72 hrs by MTT assay; assay type: functional, cell-based; conditions: HT-29, 72 h
HT-29 [27] = test: Induction of apoptosis in human HT-29 cells assessed as early apoptotic cells at 4 uM incubated for 48 hrs by Annexin V-FITC/PI staining based flow cytometry analysis (Rvb= 2.41%); assay type: functional
HT-29 [28] = test: Induction of cell cycle arrest in human HT-29 cells assessed as accumulation of cells at G1 phase at 2 uM incubated for 48 hrs by RNaeA/propidium iodide based flow cytometry analysis (reference value: 62.98 %); assay type: functional
[29] = Stability of compound in TRIS buffer at pH 7.4 assessed as compound remaining measured after 60 hrs by HPLC analysis; assay type: physicochemical; conditions: read-out: Stability
HT-29 [30] = test: Antitumor activity against human HT-29 cells overexpressing NQO-1 xenografted in ICR mouse assessed as reduction in tumor weight at 15 mg/kg, ip administered every day for 21 days and measured every 2 days relative to control; assay type: functional; design: scale not given: the % may be the effect or the level left; conditions: time 21 day
HT-29 [31] = test: Antitumor activity against human HT-29 cells overexpressing NQO-1 xenografted in ICR mouse assessed as reduction in tumor weight at 30 mg/kg, ip administered every day for 21 days and measured every 2 days relative to control; assay type: functional; design: scale not given: the % may be the effect or the level left; conditions: time 21 day
HT-29 [32] = test: Induction of cell cycle arrest in human HT-29 cells assessed as accumulation of cells at S phase at 1 uM incubated for 48 hrs by RNaeA/propidium iodide based flow cytometry analysis (reference value: 23.06 %); assay type: functional

NAD(P)H dehydrogenase [quinone] 1 (Homo sapiens), sequence (P15559 whole entry): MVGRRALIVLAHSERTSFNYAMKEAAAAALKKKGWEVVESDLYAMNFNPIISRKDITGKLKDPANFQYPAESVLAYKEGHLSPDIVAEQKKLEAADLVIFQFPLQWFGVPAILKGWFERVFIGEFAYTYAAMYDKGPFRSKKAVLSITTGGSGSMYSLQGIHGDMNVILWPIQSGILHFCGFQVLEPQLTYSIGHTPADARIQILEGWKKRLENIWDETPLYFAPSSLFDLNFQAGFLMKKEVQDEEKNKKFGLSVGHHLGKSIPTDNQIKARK

C=C(C)[C@@H]1CC[C@]2(C(=O)OCCOC(=O)CCC(=O)OCc3cn(C)c4c3C(=O)C(OC)=CC4=O)CC[C@]3(C)[C@H](CC[C@@H]4[C@@]5(C)CC[C@H](O)[C@@](C)(CO)[C@@H]5CC[C@]43C)[C@@H]12
Activity (HT-29 [1]): 56.44%
selectivity ratio [2]: 4.16
Activity (HT-29 [3]): Dde
Activity (HT-29 [4]): 44.48%
Activity (HT-29 [5]): 6.74%
Activity (HT-29 [6]): Dde
Activity (HT-29 [7]): 16.77%
viability at 2 µM (HT-29 [8]): 55.7%
viability at 1 µM (HT-29 [9]): 75.5%
Activity (HT-29 [10]): 33.41%
Activity (HT-29 [11]): 25.17%
Activity (HT-29 [12]): Dde
IC50 (A549): 2.36 µM
Activity [13]: 100%
Activity (HT-29 [14]): 66.47%
Activity (HT-29 [15]): 22.1%
Ratio IC50 [16]: 4.9
Activity (HT-29 [17]): 9.81%
IC50 (NCI-H596): 7.78 µM
Activity (HT-29 [18]): Dde
viability at 4 µM (HT-29 [19]): 38.4%
IC50 at 72 h [20]: 6.45 µM
Activity (HT-29 [21]): 27.66%
Activity (HT-29 [22]): 20.83%
Activity [23]: 50%
Ratio IC50 [24]: 3.44
Activity (HT-29 [25]): 55.52%
IC50 (HT-29 [26]): 1.87 µM
Activity (HT-29 [27]): 32.28%
Activity (HT-29 [28]): 52.73%
remaining at 60 h [29]: 80%
Activity (HT-29 [30]): 55.89%
Activity (HT-29 [31]): 72.69%
Activity (HT-29 [32]): 23.02%
